In PubChem BioAssay AID222 (DTP/NCI, 2004):
Values joined by “and” are separate entries in the source; they are usually repeats but may differ in a detail not shown here. Identical values can stand only once. Toxic doses and inconclusive results are not listed.

Test system: C57BL/6 mice, intracerebral ependymoblastoma, median survival T/C
Experiment: NCI In Vivo Anticancer Drug Screen. Data for tumor model Ependymoblastoma (intracerebral) in C57BL/6 mice
Conditions: endpoint: median survival time, higher = longer survival
Experimental: The antitumor activity of compounds was measured in mice bearing transplantable tumors. Survival or tumor size were measured and the results are expressed as the measurement made in the treated group (T) divided by the measurement made in the vehicle treated control group (C). The tumor model used in this assay is Ependymoblastoma (intracerebral) in C57BL/6 mice

[1] = dose: 64.0 mg/kg/injection, schedule: Q01DX005 (ip), vehicle: Klucel (hydroxypropylcellulose) (HPC)
[2] = dose: 128.0 mg/kg/injection, schedule: Q01DX005 (ip), vehicle: Klucel (hydroxypropylcellulose) (HPC)
[3] = dose: 256.0 mg/kg/injection, schedule: Q01DX005 (ip), vehicle: Klucel (hydroxypropylcellulose) (HPC)
[4] = dose: 512.0 mg/kg/injection, schedule: Q01DX005 (ip), vehicle: Klucel (hydroxypropylcellulose) (HPC)
[5] = dose: 0.25 mg/kg/injection, schedule: Q01DX005 (ip), vehicle: saline

Structure (SMILES): O=c1n(CC2CO2)c(=O)n(CC2CO2)c(=O)n1CC1CO1 (stereo not drawn)
- T/C (dose: 20.0 mg/kg/injection, schedule: Q01DX009 (ip), vehicle: saline): 114 % of control
- T/C (dose: 25.0 mg/kg/injection, schedule: Q01DX009 (ip), vehicle: saline): 114 % of control
- T/C (dose: 40.0 mg/kg/injection, schedule: Q01DX009 (ip), vehicle: saline): 124 % of control
- T/C (dose: 50.0 mg/kg/injection, schedule: Q01DX009 (ip), vehicle: saline): 111 % of control
- T/C (dose: 100.0 mg/kg/injection, schedule: Q01DX009 (ip), vehicle: saline): 95 % of control

Structure (SMILES): NC(=S)N/N=C/c1ccc(O)cn1
- T/C (dose: 12.0 mg/kg/injection, schedule: Q01DX005 (ip), vehicle: saline): 108 % of control
- T/C (dose: 24.0 mg/kg/injection, schedule: Q01DX005 (ip), vehicle: saline): 94 % of control
- T/C (dose: 48.0 mg/kg/injection, schedule: Q01DX005 (ip), vehicle: saline): 101 % of control
- T/C (dose: 96.0 mg/kg/injection, schedule: Q01DX005 (ip), vehicle: saline): 104 % of control

Structure (SMILES): C[n+]1ccc(Nc2ccc(NC(=O)c3ccc(Nc4cc[n+](C)c5ccc(N)cc45)cc3)cc2)cc1
- T/C (dose: 1.0 mg/kg/injection, schedule: Q01DX005 (ip), vehicle: Klucel (hydroxypropylcellulose) (HPC)): 95 % of control
- T/C (dose: 2.0 mg/kg/injection, schedule: Q01DX005 (ip), vehicle: Klucel (hydroxypropylcellulose) (HPC)): 113 % of control
- T/C (dose: 4.0 mg/kg/injection, schedule: Q01DX005 (ip), vehicle: Klucel (hydroxypropylcellulose) (HPC)): 108 % of control
- T/C (dose: 8.0 mg/kg/injection, schedule: Q01DX005 (ip), vehicle: Klucel (hydroxypropylcellulose) (HPC)): 113 % of control

Structure (SMILES): Nc1nc(=S)c2ncn(C3OC(CO)CC3O)c2[nH]1 (stereo not drawn)
- T/C (dose: 5.0 mg/kg/injection, schedule: Q01DX005 (ip), vehicle: saline): 99 % of control
- T/C (dose: 10.0 mg/kg/injection, schedule: Q01DX005 (ip), vehicle: saline): 99 % of control

Structure (SMILES): O=C(N[C@H](CO)[C@H](O)c1ccc([N+](=O)[O-])cc1)C(Cl)Cl
- T/C (dose: 90.0 mg/kg/injection, schedule: Q01DX005 (ip), vehicle: saline with Tween-80): 97 % of control
- T/C (dose: 180.0 mg/kg/injection, schedule: Q01DX005 (ip), vehicle: saline with Tween-80): 95 % of control and 100 % of control
- T/C (dose: 360.0 mg/kg/injection, schedule: Q01DX005 (ip), vehicle: saline with Tween-80): 87 % of control and 101 % of control
- T/C (dose: 720.0 mg/kg/injection, schedule: Q01DX005 (ip), vehicle: saline with Tween-80): 98 % of control

Structure (SMILES): CN(C)C(=O)N(CCCl)N=O
- T/C (dose: 16.0 mg/kg/injection, schedule: Q01DX001 (ip), vehicle: other): 154 % of control
- T/C (dose: 20.0 mg/kg/injection, schedule: Q01DX001 (ip), vehicle: other): 279 % of control

Structure (SMILES): O=c1ccn(C2OC(CO)C(O)C2O)c(=O)[nH]1 (stereo not drawn)
- T/C (dose: 64.0 mg/kg/injection, schedule: Q01DX005 (ip), vehicle: saline): 93 % of control
- T/C (dose: 128.0 mg/kg/injection, schedule: Q01DX005 (ip), vehicle: saline): 89 % of control and 100 % of control
- T/C (dose: 256.0 mg/kg/injection, schedule: Q01DX005 (ip), vehicle: saline): 102 % of control and 109 % of control
- T/C (dose: 512.0 mg/kg/injection, schedule: Q01DX005 (ip), vehicle: saline): 96 % of control and 108 % of control

Structure (SMILES): COc1ccc2c(c1O)-c1cc(O)cc3c1C(C2)N(CCCl)CC3 (stereo not drawn)
- T/C (dose: 4.0 mg/kg/injection, schedule: Q01DX005 (ip), vehicle: saline with Tween-80): 95 % of control and 98 % of control
- T/C (dose: 8.0 mg/kg/injection, schedule: Q01DX005 (ip), vehicle: saline with Tween-80): 98 % of control
- T/C (dose: 16.0 mg/kg/injection, schedule: Q01DX005 (ip), vehicle: saline with Tween-80): 94 % of control and 100 % of control
- T/C (dose: 32.0 mg/kg/injection, schedule: Q01DX005 (ip), vehicle: saline with Tween-80): 110 % of control

Structure (SMILES): Cc1ncc([N+](=O)[O-])n1CCO
- T/C [1]: 103 % of control
- T/C [2]: 99 % of control
- T/C [3]: 107 % of control
- T/C [4]: 111 % of control
- T/C (dose: 1024.0 mg/kg/injection, schedule: Q01DX005 (ip), vehicle: Klucel (hydroxypropylcellulose) (HPC)): 94 % of control

Structure (SMILES): COc1ccc(CC2C(=O)NC(C)C(=O)N(C)C3C(=O)N(C)C(Cc4ccc(O)c(c4)Oc4ccc(cc4)C3O)C(=O)NC(C)C(=O)NC(C)C(=O)N2C)cc1 (stereo not drawn)
- T/C (dose: 0.13 mg/kg/injection, schedule: Q01DX005 (ip), vehicle: saline): 103 % of control
- T/C [5]: 98 % of control
- T/C (dose: 0.5 mg/kg/injection, schedule: Q01DX005 (ip), vehicle: saline): 98 % of control
- T/C (dose: 1.0 mg/kg/injection, schedule: Q01DX005 (ip), vehicle: saline): 95 % of control

Structure (SMILES): C1CN1c1nc(N2CC2)nc(N2CC2)n1
- T/C (dose: 0.12 mg/kg/injection, schedule: Q01DX005 (ip), vehicle: saline): 111 % of control
- T/C [5]: 124 % of control

Structure (SMILES): CCC(=O)O[C@H]1CC[C@H]2[C@@H]3[C@@H](C)CC4=CC(=O)CC[C@]4(C)[C@H]3CC[C@]12C
- T/C (dose: 32.0 mg/kg/injection, schedule: Q01DX005 (ip), vehicle: Klucel (hydroxypropylcellulose) (HPC)): 104 % of control
- T/C [1]: 105 % of control and 106 % of control
- T/C (dose: 128.0 mg/kg/injection, schedule: Q01DX001 (ip), vehicle: Klucel (hydroxypropylcellulose) (HPC)): 106 % of control
- T/C [2]: 105 % of control and 111 % of control
- T/C (dose: 128.0 mg/kg/injection, schedule: Q01DX005 (oral), vehicle: Klucel (hydroxypropylcellulose) (HPC)): 109 % of control
- T/C (dose: 256.0 mg/kg/injection, schedule: Q01DX001 (ip), vehicle: Klucel (hydroxypropylcellulose) (HPC)): 93 % of control
- T/C [3]: 103 % of control and 113 % of control
- T/C (dose: 256.0 mg/kg/injection, schedule: Q01DX005 (oral), vehicle: Klucel (hydroxypropylcellulose) (HPC)): 97 % of control
- T/C (dose: 512.0 mg/kg/injection, schedule: Q01DX001 (ip), vehicle: Klucel (hydroxypropylcellulose) (HPC)): 103 % of control
- T/C [4]: 105 % of control and 107 % of control
- T/C (dose: 512.0 mg/kg/injection, schedule: Q01DX005 (oral), vehicle: Klucel (hydroxypropylcellulose) (HPC)): 90 % of control
- T/C (dose: 1024.0 mg/kg/injection, schedule: Q01DX001 (ip), vehicle: Klucel (hydroxypropylcellulose) (HPC)): 96 % of control
- T/C (dose: 1024.0 mg/kg/injection, schedule: Q01DX005 (oral), vehicle: Klucel (hydroxypropylcellulose) (HPC)): 113 % of control
